{"source": "patent US12398110B2", "about": "“Second generation inhibitors of mitochondrial permeability transition pore with improved plasma stability” (Oregon Health & Science University, priority 2019, dated 2025)", "key": {"[1]": {"system": "col6a1 zebrafish morphants", "assay": "Survival of col6a1 zebrafish morphants", "format": "in vivo", "description": "In FIG. 6D, the left panel represents data from embryos injected with a scrambled morpholino (scrd_MO, open squares), Exon 9 col6a1 morpholino (col6a1_MO, closed squares) and col6a1_MO embryos treated with TR001 at 0.1 μm (open circles), 1.0 μm (open triangles), 10 μm (open diamonds). Right panel represents data from embryos injected with a scrambled morpholino (scrd_MO, open squares), Exon 9 col6a1 morpholino (col6a1_MO, closed squares) and col6a1_MO embryos treated with 63 at […] (closed circles), 1.0 μm (closed triangles), 10 μm (closed diamonds). Embryos were treated with oligomycin, FCCP, rotenone (R) and antimycin A (A) as indicated. Results are presented as mean±SEM. Both graphs report data from 5 independent experiments with n=20 for each treatment. Error bars are reported as SEM. FIG. 6E, Survival of DMSO-treated zebrafish injected with the scrambled morpholino (open squares), DMSO-treated col6a1 morphants (closed squares) and col6a1 morphants treated with TR001 (0.1 μm, open triangles; 1.0 μm, open circles; 10 μm, open diamonds) or 63 (0.1 μm, closed triangles; 1.0 μm, closed circles; 10 μm, closed diamonds) were recorded for 30 days. Treatment started at 21 hpf and repeated at 4 dpf (arrows). Data report the percentage of surviving fish and are mean±SEM from 3 independent experiments (n=15 for each condition in each set).\nFinally, fish survival was also assessed. Fifty percent of col6a1 morphant embryos treated with 0.1 μm of TR001 survived 7 days longer than col6a1 morphants treated with DMSO (p<0.0001 from 3 to 12 dpf), and 20% were still alive at 30 dpf (i.e., after 29 days of treatment) (FIG. 6E).\n(§1) Morpholino antisense injection and treatment. Knock-down of col6a1 gene expression was obtained with a previously published morpholino ^[25] with sequence GAGAGCGGAAGACGAACCTTCATTC (SEQ ID NO: 2; GeneTools, Inc.). A control morpholino with no sequence homology in the zebrafish genome was used in parallel (CCTCTTACCTCAGTTACAATTTATA; SEQ ID NO: 3). Zebrafish eggs from wild-type matings were injected at the 1-2 cell stage with approximately 10 nL of 0.1 mm morpholino solution (corresponding to 4 ng of morpholino) using a WPI pneumatic PicoPump PV820 injector (World Precision Instruments, Inc.). Zebrafish embryos were dechorionated at 20 hours post fertilization (hpf) and treated at 21 hpf with increasing doses (0.1, 1 and 10 μm) of both TR001 and 63 compounds dissolved in fish water with 1% DMSO (vehicle).\nSurvival. Zebrafish survival was monitored every 3 days for 30 days. Drug treatment with both TR001 and 63 dissolved in fish water with 1% DMSO started at 21 hpf. After 3 days of treatment (4 days post fertilization, dpf), zebrafish were moved to a bigger tank (50 mL) with fresh compounds dissolved in 1% DMSO. As a control vehicle, fish water with 1% DMSO was used."}, "[2]": {"system": "col6a1 zebrafish morphants", "assay": "Birefringence (muscle structure) in col6a1 zebrafish morphants", "format": "in vivo", "conditions": "48 hpf", "description": "Muscle structure was assessed by birefringence analysis at 48 hpf, a time when muscle tissue is fully developed and organized muscle fibers start to show anisotropic features. A high percentage of severe birefringence abnormality (>75%, FIG. 6C) was detected in col6a1 morphants, indicating major defects of muscle fiber development and organization.\nas §1, with “Zebrafish embryos were dechorionated at 20 hours post fertilization (hpf) and treated at 21 hpf with increasing doses (0.1, 1 and 10 μm) of both TR001 and 63 compounds dissolved in fish water with 1% DMSO (vehicle).” left out\nBirefringence. Muscle structure was monitored by birefringence analysis, taking advantage of muscle anisotropy, which is the ability of muscle fibers to refract polarized light. […] With this set-up, light refracted by muscle fibers (due to the pseudo-crystalline array of sarcomeres) is transmitted and analyzed. Integrated area of birefringence was calculated using ImageJ software. […]"}, "[3]": {"assay": "Plasma stability determination in mouse plasma", "format": "in vitro ADME", "description": "Plasma stability determination. The degradation of TR001 in the presence of mouse plasma (from Innovative Research) was used to predict the plasma stability of the compound to esterase catalyzed hydrolysis. A positive control for plasma cholinesterase, propantheline bromide, was included in all assays. Briefly, murine plasma was incubated with 1 μm TR001. Aliquots were removed at t=0, 5, 15, 30, and 60 and 120 min and quenched with acetonitrile containing structurally related compound (TR073) as the internal standard. The amount of TR001 remaining in the supernatant was assessed by LC-MS/MS in multiple reaction monitoring mode (MRM) using a 4000 QTRAP (SCIEX) with electrospray ionization source. The instrument was operated in negative mode with source parameters: source voltage […], GS1 50, GS2 50, CUR 30, TEM 650 and CAD gas MED. Optimal MRM transitions were obtained by direct infusion of the pure compound into the source. The mass spectrometer was interfaced to a Shimadzu (Columbia, MD) SIL-20AC XR auto-sampler maintained at 35° C. followed by 2 LC-20AD XR LC pumps. The internal standard and compound of interest were resolved using a Gemini-NX C18 50×2.1 mm column (Phenomenex) with 0.1% formic acid (solvent A) and 0.1% formic acid in acetonitrile (solvent B). The injection volume was 10 μL at a flow rate of 0.75 mL/min. The gradient elution was 10% B to 95% B over 5 min and held at 95% for 1 min before returning to start conditions. The column was maintained at 40° C. using a Shimadzu CTO-20AC column oven. Data were acquired using Analyst 1.6.2 and analyzed using Multiquant 3.0.1 software. The first-order rate constant for substrate depletion was determined from a linear least squares fit of the natural log of the percent parent compound remaining versus time. The rate constant was used to calculate the plasma half-life as an indicator of stability."}}}
{"smiles": "Cc1ccc(Cl)cc1NC(=O)c1cn(-c2ccc(F)c(O)c2)nn1", "note": "[TR001, N-(5-chloro-2-methylphenyl)-1-(4-fluoro-3-hydroxyphenyl)-1H-1,2,3-triazole-4-carboxamide]", "values": [{"measurement": "days longer survival of fifty percent of embryos than DMSO treated morphants", "setting": "[1]; 0.1 μm", "result": 7, "unit": "days"}, {"measurement": "percent still alive at 30 dpf", "setting": "[1]; 0.1 μm, after 29 days of treatment", "result": 20, "unit": "%"}, {"measurement": "survival (in words)", "setting": "[1]; 1 μm", "result": "effective at improving survival rate"}, {"measurement": "survival (in words)", "setting": "[1]; 10 μm", "result": "ineffective"}, {"measurement": "muscle structure by birefringence", "setting": "[2]", "result": "significantly rescued"}, {"measurement": "fold increase in plasma stability compared to 63", "setting": "[3]; TR001 vs 63", "result": 47, "unit": "fold"}, {"measurement": "half-life at 1 µM", "setting": "[3]; mouse, read-out: Mouse Plasma t1/2", "result": 16.5, "unit": "h"}]}
